What all share (type): cell-based
For assay [1], the target named is T1, PfCRT^Dd2 (Plasmodium falciparum, UniProt Q9N623, A220S/I356T/K76T/M74I/N326S/N75E/Q271E/R371I). In words: [3H]CQ uptake into Xenopus oocytes, cis-inhibition by unlabelled solute. Particulars: PfCRTDd2 oocytes, background [3H]CQ accumulation subtracted, normalised to oocyte type control. An outline of the steps: (§1)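 ND96, pH 5.5, 1.5 h, 27.5 °C; uptake direction acidic outside → oocyte cytosol, mimicking efflux from digestive vacuole. Ice-cold wash stop, 10% SDS lysis, scintillation counting. Ten oocytes/treatment, ≥4 independent experiments.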
T1 sequence (Q9N623 whole entry A220S/I356T/K76T/M74I/N326S/N75E/Q271E/R371I): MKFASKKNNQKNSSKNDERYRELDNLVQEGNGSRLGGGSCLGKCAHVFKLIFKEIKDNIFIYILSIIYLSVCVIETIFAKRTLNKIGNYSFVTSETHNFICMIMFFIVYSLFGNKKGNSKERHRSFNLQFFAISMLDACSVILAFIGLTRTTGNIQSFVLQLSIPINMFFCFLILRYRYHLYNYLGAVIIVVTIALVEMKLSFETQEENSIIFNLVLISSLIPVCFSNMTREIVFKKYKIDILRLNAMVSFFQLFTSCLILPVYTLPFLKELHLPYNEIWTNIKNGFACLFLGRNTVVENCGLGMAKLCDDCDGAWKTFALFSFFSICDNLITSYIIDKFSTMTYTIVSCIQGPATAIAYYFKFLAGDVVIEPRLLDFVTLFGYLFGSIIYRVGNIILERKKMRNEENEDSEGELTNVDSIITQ

Assay [2] has as its target T2, PfCRT^Ecu1110 (Plasmodium falciparum, UniProt Q9N623, A220S/I356L/K76T/N326D). The description is as above. The settings on record: for PfCRT-mediated [3H]CQ transport, cis-inhibition (% PfCRTEcu1110 control): PfCRTEcu1110 oocytes, background [3H]CQ accumulation subtracted, normalised to oocyte type control; for [3H]CQ transport (% PfCRTEcu1110 control), cis-inhibition, PfCRTEcu1110: PfCRT-mediated component (background subtracted), sheet title says normalised to PfCRTDd2 control, mean ± SEM, SEM. An outline of the steps:
as §1

Assay [3] deals with T1, PfCRT^Dd2. Briefly: cell-based. The settings on record: for PfCRT-mediated [3H]CQ transport, trans-stimulation (% PfCRTDd2 control): PfCRTDd2 oocytes, normalised to oocyte type control; for [3H]CQ transport (% PfCRTDd2 control), trans-stimulation, PfCRTDd2: PfCRT-mediated component (background subtracted), mean ± SEM, SEM. An outline of the steps:
(§2)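 Oocytes (ten per treatment, ≥4 independent frogs/days) were preloaded by injecting VF-6 in 25 nL ND96 at pH 5.0, 5.5, 6.0 or 7.0, or Na^+-free choline buffer, then uptake run 1.5 h, 27.5 °C, ND96 pH 5.5 by default. Internal concentrations assumed ~400 nL oocyte volume.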

Assay [4] addresses T2, PfCRT^Ecu1110. In words: cell-based. The settings on record: for PfCRT-mediated [3H]CQ transport, trans-stimulation (% PfCRTEcu1110 control): PfCRTEcu1110 oocytes, normalised to oocyte type control; for [3H]CQ transport (% PfCRTDd2 control), trans-stimulation, PfCRTEcu1110: PfCRT-mediated component (background subtracted), sheet title says normalised to PfCRTDd2 control, mean ± SEM, SEM. The method, boiled down: as §2

In assay [5] the target is PfCRT^3D7 (Plasmodium falciparum, UniProt Q8IBZ9). Briefly: cell-based. The settings on record: PfCRT3D7 oocytes, normalised to oocyte type control. The method, boiled down: as §2
Chain of PfCRT^3D7 (Q8IBZ9 59-398): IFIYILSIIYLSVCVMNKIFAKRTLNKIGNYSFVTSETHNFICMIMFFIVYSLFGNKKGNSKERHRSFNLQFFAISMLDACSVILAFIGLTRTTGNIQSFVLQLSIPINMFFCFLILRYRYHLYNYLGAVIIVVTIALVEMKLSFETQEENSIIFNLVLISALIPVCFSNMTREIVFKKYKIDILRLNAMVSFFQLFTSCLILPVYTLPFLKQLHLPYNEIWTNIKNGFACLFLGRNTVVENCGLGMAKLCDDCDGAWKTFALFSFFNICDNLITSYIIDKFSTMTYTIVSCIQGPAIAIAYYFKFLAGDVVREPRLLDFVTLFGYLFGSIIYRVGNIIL
[6] abbreviates: [test solute]i = 5 mM (intracellular).
Where [7] appears, read: [test solute]i = 45 mM (intracellular; 30 mM for some solutes due to solubility).
[8] abbreviates: [test solute]i = 5 mM (injected).
Where [9] appears, read: [test solute]i = 45 mM (30 mM for some solutes due to solubility).

T2 sequence (Q9N623 whole entry A220S/I356L/K76T/N326D): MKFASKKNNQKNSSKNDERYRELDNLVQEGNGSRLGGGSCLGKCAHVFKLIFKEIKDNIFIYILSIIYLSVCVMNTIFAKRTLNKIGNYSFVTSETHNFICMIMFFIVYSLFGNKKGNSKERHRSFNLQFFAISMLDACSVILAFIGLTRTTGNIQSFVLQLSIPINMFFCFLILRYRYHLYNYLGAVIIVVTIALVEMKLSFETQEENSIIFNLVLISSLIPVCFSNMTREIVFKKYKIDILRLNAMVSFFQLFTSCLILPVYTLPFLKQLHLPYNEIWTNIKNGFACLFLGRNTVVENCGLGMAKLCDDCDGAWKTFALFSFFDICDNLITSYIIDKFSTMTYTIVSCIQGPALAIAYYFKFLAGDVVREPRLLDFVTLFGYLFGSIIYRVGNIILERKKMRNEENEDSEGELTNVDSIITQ

Regarding GLAHL [GL-5], the “PfCRT-mediated [3H]CQ transport, cis-inhibition (% PfCRTDd2 control)” value in assay [1] ([test solute] = 0.5 mM) is listed as 62 ± 1.1 % PfCRTDd2 control; in assay [1] ([test solute] = 1 mM), 50 ± 3.5 % PfCRTDd2 control; in assay [1] ([test solute] = 2 mM), 20 ± 1.3 % PfCRTDd2 control. For the same substance, the figures for the “PfCRT-mediated [3H]CQ transport, cis-inhibition (% PfCRTEcu1110 control)” value in assay [2] ([test solute] = 0.5 mM), in assay [2] ([test solute] = 1 mM) and in assay [2] ([test solute] = 2 mM) were 68 ± 2.5 % PfCRTEcu1110 control, 58 ± 3.5 % PfCRTEcu1110 control and 28 ± 2.0 % PfCRTEcu1110 control, respectively. For the same substance, the entries for the “[3H]CQ transport (% PfCRTEcu1110 control), cis-inhibition, PfCRTEcu1110” value in assay [2] ([test solute] = 1 mM) and in assay [2] ([test solute] = 2 mM) were 18 ± 0.1 % PfCRTEcu1110 control and 9.0 ± 0.01 % PfCRTEcu1110 control, respectively. Moreover, the “PfCRT-mediated [3H]CQ transport, trans-stimulation (% PfCRTDd2 control)” value came out at 98 ± 4.1 % PfCRTDd2 control in assay [3] (setting [6]) and 98 ± 3.3 % PfCRTDd2 control in assay [3] (setting [7]). Also, the figures for the “[3H]CQ transport (% PfCRTDd2 control), trans-stimulation, PfCRTDd2” value in assay [3] (setting [8]) and in assay [3] (setting [9]) were 98 ± 4.1 % PfCRTDd2 control and 98 ± 3.3 % PfCRTDd2 control, respectively. The “PfCRT-mediated [3H]CQ transport, trans-stimulation (% PfCRTEcu1110 control)” value in assay [4] (setting [6]) was found to be 96 ± 4.1 % PfCRTEcu1110 control; in assay [4] (setting [7]), 99 ± 3.6 % PfCRTEcu1110 control. The “[3H]CQ transport (% PfCRTDd2 control), trans-stimulation, PfCRTEcu1110” value in assay [4] (setting [8]) is 29 ± 1.4 % PfCRTEcu1110 control; in assay [4] (setting [9]), 30 ± 1.3 % PfCRTEcu1110 control. Also, the “PfCRT-mediated [3H]CQ transport, trans-stimulation (% PfCRT3D7 control)” value (shortened to “PfCRT-mediated … (% PfCRT3D7 control)”) in assay [5] (setting [6]) is on record as 97 ± 3.5 % PfCRT3D7 control; in assay [5] (setting [7]), 94 ± 4.6 % PfCRT3D7 control.
For GTFAT [GT-5], the entries for the “PfCRT-mediated [3H]CQ transport, cis-inhibition (% PfCRTDd2 control)” value in assay [1] ([test solute] = 0.5 mM), in assay [1] ([test solute] = 1 mM) and in assay [1] ([test solute] = 2 mM) were 62 ± 2.0 % PfCRTDd2 control, 50 ± 2.2 % PfCRTDd2 control and 20 ± 1.1 % PfCRTDd2 control, respectively. Moreover, the “PfCRT-mediated [3H]CQ transport, cis-inhibition (% PfCRTEcu1110 control)” value in assay [2] ([test solute] = 0.5 mM) is listed as 51 ± 1.1 % PfCRTEcu1110 control; in assay [2] ([test solute] = 1 mM) it was 41 ± 2.5 % PfCRTEcu1110 control; in assay [2] ([test solute] = 2 mM), 30 ± 0.4 % PfCRTEcu1110 control. Further, the “[3H]CQ transport (% PfCRTEcu1110 control), cis-inhibition, PfCRTEcu1110” value in assay [2] ([test solute] = 1 mM) is listed as 13 ± 0.3 % PfCRTEcu1110 control; in assay [2] ([test solute] = 2 mM), 9.0 ± 0.1 % PfCRTEcu1110 control. Besides, the results for the “PfCRT-mediated [3H]CQ transport, trans-stimulation (% PfCRTDd2 control)” value in assay [3] (setting [6]) and in assay [3] (setting [7]) were 96 ± 3.5 % PfCRTDd2 control and 96 ± 4.2 % PfCRTDd2 control, respectively. Moreover, the results for the “[3H]CQ transport (% PfCRTDd2 control), trans-stimulation, PfCRTDd2” value in assay [3] (setting [8]) and in assay [3] (setting [9]) were 96 ± 3.5 % PfCRTDd2 control and 96 ± 4.2 % PfCRTDd2 control, respectively. The “PfCRT-mediated [3H]CQ transport, trans-stimulation (% PfCRTEcu1110 control)” value in assay [4] (setting [6]) is on record as 98 ± 4.6 % PfCRTEcu1110 control; in assay [4] (setting [7]), 98 ± 4.4 % PfCRTEcu1110 control. In addition, the “[3H]CQ transport (% PfCRTDd2 control), trans-stimulation, PfCRTEcu1110” value in assay [4] (setting [8]) was 30 ± 1.6 % PfCRTEcu1110 control; in assay [4] (setting [9]), 30 ± 1.7 % PfCRTEcu1110 control. Moreover, the “PfCRT-mediated … (% PfCRT3D7 control)” value is reported as 96 ± 3.5 % PfCRT3D7 control in assay [5] (setting [6]) and 96 ± 3.4 % PfCRT3D7 control in assay [5] (setting [7]).
With HAGEYG [HG-6], the “PfCRT-mediated [3H]CQ transport, cis-inhibition (% PfCRTDd2 control)” value in assay [1] ([test solute] = 0.5 mM) amounted to 36 ± 2.1 % PfCRTDd2 control; in assay [1] ([test solute] = 1 mM), 22 ± 0.9 % PfCRTDd2 control; in assay [1] ([test solute] = 2 mM) it was 9.3 ± 0.1 % PfCRTDd2 control. Also, the “PfCRT-mediated [3H]CQ transport, cis-inhibition (% PfCRTEcu1110 control)” value in assay [2] ([test solute] = 0.5 mM) came to 35 ± 4.6 % PfCRTEcu1110 control; in assay [2] ([test solute] = 1 mM) it was 27 ± 4.1 % PfCRTEcu1110 control. The “[3H]CQ transport (% PfCRTEcu1110 control), cis-inhibition, PfCRTEcu1110” value in assay [2] ([test solute] = 0.5 mM) was 11 ± 0.5 % PfCRTEcu1110 control; in assay [2] ([test solute] = 1 mM) it was 9.0 ± 0.05 % PfCRTEcu1110 control; in assay [2] ([test solute] = 2 mM), 4.0 ± 0.01 % PfCRTEcu1110 control. For the same substance, the “PfCRT-mediated [3H]CQ transport, trans-stimulation (% PfCRTDd2 control)” value worked out at 101 ± 3.3 % PfCRTDd2 control in assay [3] (setting [6]) and 98 ± 2.5 % PfCRTDd2 control in assay [3] (setting [7]). Further, the “[3H]CQ transport (% PfCRTDd2 control), trans-stimulation, PfCRTDd2” value turned out to be 101 ± 3.3 % PfCRTDd2 control in assay [3] (setting [8]) and 98 ± 2.5 % PfCRTDd2 control in assay [3] (setting [9]). For the same substance, the “PfCRT-mediated [3H]CQ transport, trans-stimulation (% PfCRTEcu1110 control)” value in assay [4] (setting [6]) is 98 ± 2.4 % PfCRTEcu1110 control; in assay [4] (setting [7]), 96 ± 3.3 % PfCRTEcu1110 control. Also, the “[3H]CQ transport (% PfCRTDd2 control), trans-stimulation, PfCRTEcu1110” value in assay [4] (setting [8]) turned out to be 30 ± 1.5 % PfCRTEcu1110 control; in assay [4] (setting [9]), 29 ± 1.3 % PfCRTEcu1110 control. In addition, the results for the “PfCRT-mediated … (% PfCRT3D7 control)” value in assay [5] (setting [6]) and in assay [5] (setting [7]) were 136 ± 3.6 % PfCRT3D7 control and 190 ± 4.2 % PfCRT3D7 control, respectively.
For the substance HFDLS [HS-5], the “PfCRT-mediated [3H]CQ transport, cis-inhibition (% PfCRTDd2 control)” value in assay [1] ([test solute] = 0.5 mM) turned out to be 20 ± 0.1 % PfCRTDd2 control; in assay [1] ([test solute] = 1 mM), 9 ± 0.2 % PfCRTDd2 control; in assay [1] ([test solute] = 2 mM) it was 3.2 ± 0.1 % PfCRTDd2 control. The entries for the “PfCRT-mediated [3H]CQ transport, cis-inhibition (% PfCRTEcu1110 control)” value in assay [2] ([test solute] = 0.5 mM) and in assay [2] ([test solute] = 2 mM) were 20 ± 1.3 % PfCRTEcu1110 control and 4.3 ± 0.1 % PfCRTEcu1110 control, respectively. Besides, the “[3H]CQ transport (% PfCRTEcu1110 control), cis-inhibition, PfCRTEcu1110” value in assay [2] ([test solute] = 1 mM) turned out to be 3.0 ± 0.04 % PfCRTEcu1110 control; in assay [2] ([test solute] = 2 mM), 1.0 ± 0.06 % PfCRTEcu1110 control. Further, the entries for the “PfCRT-mediated [3H]CQ transport, trans-stimulation (% PfCRTDd2 control)” value in assay [3] (setting [6]) and in assay [3] (setting [7]) were 100 ± 3.2 % PfCRTDd2 control and 112 ± 1.1 % PfCRTDd2 control, respectively. Moreover, the “[3H]CQ transport (% PfCRTDd2 control), trans-stimulation, PfCRTDd2” value was determined as 100 ± 3.2 % PfCRTDd2 control in assay [3] (setting [8]) and 112 ± 1.1 % PfCRTDd2 control in assay [3] (setting [9]). In addition, the “PfCRT-mediated [3H]CQ transport, trans-stimulation (% PfCRTEcu1110 control)” value stood at 120 ± 2.1 % PfCRTEcu1110 control in assay [4] (setting [6]) and 131 ± 1.8 % PfCRTEcu1110 control in assay [4] (setting [7]). Besides, the “[3H]CQ transport (% PfCRTDd2 control), trans-stimulation, PfCRTEcu1110” value turned out to be 36 ± 1.3 % PfCRTEcu1110 control in assay [4] (setting [8]) and 40 ± 1.4 % PfCRTEcu1110 control in assay [4] (setting [9]). Moreover, the entries for the “PfCRT-mediated … (% PfCRT3D7 control)” value in assay [5] (setting [6]) and in assay [5] (setting [7]) were 139 ± 4.1 % PfCRT3D7 control and 166 ± 3.2 % PfCRT3D7 control, respectively.

Values taken from paper PMC7413254 (Nature Communications, 2020).
